In patent US20250161227A1, “PEGYLATED LIPIDS” (Acuitas Therapeutics, Inc., priority 2023, published 2025):

Tested on: reporter gene (firefly luciferase) expression in the liver
Assay: Luciferase expression in mouse liver following tail vein injection of mRNA lipid nanoparticles
Type: in vivo
Conditions: increasing concentration of compound I-5 in the lipid nanoparticle
Protocol: Lipid nanoparticles were formulated with short chain PEG lipid at various molar ratios as described in Formulation Example 1. Relative activity was determined by measuring luciferase expression in the mouse liver 4 hours following administration via tail vein injection.
Increasing concentration of compound I-5 reduced the overall expression of the reporter gene (firefly luciferase) in the liver (see, e.g., Table 4). Lipid nanoparticle systems that included compound I-5 at a concentration of 5 mol % reduced the amount of expression by ˜50% while lipid nanoparticle systems including compound I-5 at 10 mol % reduced to 20% of benchmark (lipid nanoparticle system with no compound I-5). […] However, 2.5 mol % compound I-5 changed the expression kinetic. […] Lipid nanoparticle systems with compound I-5 at a concentration of 2.5 mol % also provided a benefit of prolonged expression since at 16 hours the same system had ˜4-fold expression in comparison to the lipid nanoparticle system with no compound I-5.

`CCCCCCCCCCCCCCN(CCCCCCCCCCCCCC)C(=O)CCC(=O)OCCOCCOCCOC` [compound I-5] was tested. Which “overall expression of the reporter gene (firefly luciferase) in the liver” value did it give?
The value was “reduced”.
